Where only a bound is given, the exact number is not on record here.

For the experiment, the target named is T1, TDO2 (Homo sapiens, UniProt P48775).
T1 construct: decreased levels of NFK in SW48 cells (high TDO expressing cells)
T1 sequence (P48775 whole entry): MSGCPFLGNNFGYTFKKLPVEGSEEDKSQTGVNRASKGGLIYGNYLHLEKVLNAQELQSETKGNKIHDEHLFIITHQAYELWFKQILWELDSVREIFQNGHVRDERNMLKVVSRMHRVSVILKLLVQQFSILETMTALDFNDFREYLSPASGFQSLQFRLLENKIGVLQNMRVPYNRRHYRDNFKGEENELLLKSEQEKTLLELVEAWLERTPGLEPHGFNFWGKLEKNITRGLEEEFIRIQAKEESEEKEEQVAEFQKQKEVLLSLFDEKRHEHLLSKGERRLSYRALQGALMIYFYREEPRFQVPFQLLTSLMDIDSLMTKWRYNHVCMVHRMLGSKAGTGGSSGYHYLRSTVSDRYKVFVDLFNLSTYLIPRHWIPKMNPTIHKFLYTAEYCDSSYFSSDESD
In words: TDO2 cell assay (NFK GreenScreen, SW48 cells). Format: cell-based. To be noted: SW48 cells (high TDO expressing), 200 uM tryptophan, 24 hours; Table 3; read-out: TDO2 Cell Fluor EC50.
In general, EC50 refers to the concentration giving half of the maximal effect. For the compound `O[C@@H]1CCC[C@@H]1[C@H]1c2ccccc2-c2cncn21` [Example 02c, (1R,2R)-2-((S)-5H-imidazo[5,1-a]isoindol-5-yl)cyclopentan-1-ol], the EC50 was 0.3 µM. For `O[C@@H]1CC[C@@H]1[C@@H]1c2ccccc2-c2cncn21` [Example 01a, (1R,2R)-2-((R)-5H-imidazo[5,1-a]isoindol-5-yl)cyclobutan-1-ol] the value was 14 µM; for `NS(=O)(=O)c1ccc2c(c1)CCC(C1c3ccccc3-c3cncn31)C2O` (single isomer, unassigned) [Example 100h], 4.8 µM. For the compound `OC1CCCCC1C1c2ccc(F)cc2-c2cncn21` (single isomer, unassigned) [Example 25b], the EC50 was more than 25 µM.

As to `OC1c2ccnn2CCC1C1c2ccccc2-c2cncn21` (single isomer, unassigned) [Example 56b], the EC50 is 0.37 µM.

With `CS(=O)(=O)N1CCC(O)C(C2c3ccccc3-c3cncn32)CC1` (single isomer, unassigned) [Example 92a], the EC50 amounted to 1.2 µM.

`Cc1cc2c(cn1)[C@@H](O)[C@@H]([C@H]1c3ccccc3-c3cncn31)C2` [Example 59a, (6R,7S)-6-((S)-5H-imidazo[5,1-a]isoindol-5-yl)-3-methyl-6,7-dihydro-5H-cyclopenta[c]pyridin-7-ol]: the EC50 stood at 0.95 µM. The same measure for `OC1CC2(COC2)C1C1c2ccccc2-c2cncn21` (single isomer, unassigned) [Example 87g]: 0.24 µM. The same measure for `O=S1(=O)CC(O)C(C2c3ccccc3-c3cncn32)C1` (single isomer, unassigned) [Example 38a]: 16 µM; for `CC1(C)CC(O)C1C1c2ccccc2-c2cncn21` (single isomer, unassigned) [Example 22h]: 0.4 µM; for `NS(=O)(=O)N1CCC2(CCC(C3c4ccccc4-c4cncn43)C2O)CC1` (single isomer, unassigned) [Example 182a]: more than 25 µM. The same measure for `O[C@@H]1CCC(F)(F)C[C@@H]1[C@@H]1c2ccccc2-c2cncn21` [Example 18e, (1R,2R)-4,4-difluoro-2-((R)-5H-imidazo[5,1-a]isoindol-5-yl)cyclohexan-1-ol]: 7.5 µM; for `OC1CC2(CCC2)C1C1c2ccccc2-c2cncn21` (single isomer, unassigned) [Example 67b]: more than 25 µM. For the compound `OC1c2cccnc2CCC1C1c2ccccc2-c2cncn21` (single isomer, unassigned) [Example 31e], the EC50 was determined as 1.1 µM. Consider `NC(=O)c1nc2c(s1)CCC(C1c3ccccc3-c3cncn31)C2O` (single isomer, unassigned) [Example 149g], for which the concentration for a half-maximal effect (EC50) turned out to be 24.2 µM.

As to `Cc1ccc2c(c1)-c1cncn1C2C1COCC1O` (single isomer, unassigned) [Example 171d], the EC50 was found to be 17.7 µM.

Regarding `O[C@@H]1c2ccccc2CC[C@H]1[C@@H]1c2ccccc2-c2cncn21` (single isomer, unassigned) [Example 102g], the EC50 came out at 0.35 µM. Regarding `NC(=O)c1ccc2c(c1)CCC(C1c3ccccc3-c3cncn31)C2O` (single isomer, unassigned) [Example 60b], the concentration giving a half-maximal response (EC50) was found to be 4.1 µM. For `NC(=O)C1CCC(O)(C2c3ccccc3-c3cncn32)CC1` (single isomer, unassigned) [Example 140a] the value was more than 25 µM.

Regarding `CCS(=O)(=O)N1CCC2(CC1)CC(C1c3ccccc3-c3cncn31)C2O` (single isomer, unassigned) [Example 114d], the concentration giving a half-maximal response (EC50) was determined as 0.22 µM.

Turning to `OC1CCCC1C1c2ccccc2-c2cncn21` (single isomer, unassigned) [Example 02e], the EC50 was found to be 17 µM.

As for `NS(=O)(=O)c1ccc2c(c1)CCC(C1c3ccccc3-c3cncn31)C2O` (single isomer, unassigned) [Example 100b], the EC50 came out at 1.3 µM. For `OC1C(C2c3ccccc3-c3cncn32)CC12CCOCC2` (single isomer, unassigned) [Example 57h] the value was more than 25 µM. For `CC1(C)OC(C)(C)C(C2c3ccccc3-c3cncn32)C1O` (single isomer, unassigned) [Example 84d] the value was 3.6 µM. As for `CC1(O)CCC1C1c2ccccc2-c2cncn21` (single isomer, unassigned) [Example 35c], the EC50 was more than 25 µM.

Take `O[C@@H]1c2ncccc2CC[C@H]1[C@H]1c2ccccc2-c2cncn21` (single isomer, unassigned) [Example 126a]: the half-maximal effective concentration (EC50) is more than 25 µM. The same measure for `Cc1ccc2c(c1)-c1cncn1C2C1COCC1O` (single isomer, unassigned) [Example 171b]: more than 25 µM; for `OC1CCCC1C1c2ccc(F)cc2-c2cncn21` (single isomer, unassigned) [Example 20c]: 3.6 µM; for `O[C@H]1c2ccncc2CC[C@H]1[C@@H]1c2ccccc2-c2cncn21` (single isomer, unassigned) [Example 08c]: 5.2 µM.

In the case of `CC1(C)CCCC(C2c3ccccc3-c3cncn32)C1O` (single isomer, unassigned) [Example 24c], the EC50 was determined as 5.5 µM. For the compound `OC1(C2c3ccccc3-c3cncn32)CCCOC1` (single isomer, unassigned) [Example 144b], the EC50 is more than 25 µM.

For `OC(c1ccncc1)C1c2ccccc2-c2cncn21` (single isomer, unassigned) [Example 152a], the EC50 stood at 14 µM. In the case of `O=S1(=O)CC(O)C(C2c3ccccc3-c3cncn32)C1` (single isomer, unassigned) [Example 38d], the 50% effective concentration (EC50) came to 3.8 µM. The same measure for `CCS(=O)(=O)N1CCC2(CC1)CC(C1c3ccccc3-c3cncn31)C2O` (single isomer, unassigned) [Example 114f]: 0.91 µM. `CS(=O)(=O)N1CC[C@@H]([C@@H]2c3ccccc3-c3cncn32)[C@H](O)C1` [Example 64a, (3S,4S)-4-((R)-5H-imidazo[5,1-a]isoindol-5-yl)-1-(methylsulfonyl)piperidin-3-ol]: the EC50 is more than 25 µM. For `CC1(O)CCOCC1C1c2ccccc2-c2cncn21` (single isomer, unassigned) [Example 61c] the value was 9.1 µM; for `CN(C)C(=O)c1ccc2c(c1)CCC(C1c3ccccc3-c3cncn31)C2O` (single isomer, unassigned) [Example 98c], 0.18 µM. The same measure for `OC1CCCCC1C1c2ccccc2-c2cncn21` (single isomer, unassigned) [Example 03e]: 16 µM; for `Nc1ncc2c(n1)CCC(C1c3ccccc3-c3cncn31)C2O` (single isomer, unassigned) [Example 111d]: more than 25 µM; for `N#Cc1cnc2c(c1)CCC(C1c3ccccc3-c3cncn31)C2O` (single isomer, unassigned) [Example 107c]: 21 µM. For `CC1(C)CCCC(C)(C2c3ccccc3-c3cncn32)C1O` (single isomer, unassigned) [Example 90f] the value was 0.41 µM; for `OC1(C2c3ccccc3-c3cncn32)CCCOC1` (single isomer, unassigned) [Example 144c], 2.1 µM; for `CCS(=O)(=O)N1CCC2(CC1)CC(C1c3ccccc3-c3cncn31)C2O` (single isomer, unassigned) [Example 114c], 15 µM. `Cc1cc2n(n1)CCC(C1c3ccccc3-c3cncn31)C2O` (single isomer, unassigned) [Example 166b]: the EC50 turned out to be 0.27 µM. For `O[C@H](C1CCOCC1)[C@@H]1c2ccccc2-c2cncn21` [Example 138a, (R)—((S)-5H-imidazo[5,1-a]isoindol-5-yl)(tetrahydro-2H-pyran-4-yl)methanol] the value was 9.7 µM; for `OC1CCOCC1C1c2c(Cl)cccc2-c2cncn21` (single isomer, unassigned) [Example 69c], 11 µM; for `O[C@H]1COCC[C@H]1[C@H]1c2ccccc2-c2cncn21` [Example 06f, (3R,4S)-4-((S)-5H-imidazo[5,1-a]isoindol-5-yl)tetrahydro-2H-pyran-3-ol], 0.9 µM.

On to `OC1c2nccn2CCC1C1c2ccccc2-c2cncn21` (single isomer, unassigned) [Example 88b], for which the EC50 was more than 25 µM. The same measure for `Nc1ncc2c(n1)CCC(C1c3ccccc3-c3cncn31)C2O` (single isomer, unassigned) [Example 111g]: more than 25 µM.

Turning to `OC1c2cccn2CCC1C1c2ccccc2-c2cncn21` (single isomer, unassigned) [Example 136e], the half-maximal effective concentration (EC50) worked out at 0.64 µM. For `N#CCN1CC[C@@H]([C@H]2c3ccccc3-c3cncn32)[C@H](O)C1` (single isomer, unassigned) [Example 27b] the value was 18 µM; for `OC1CC2(CCC2)C1C1c2ccccc2-c2cncn21` (single isomer, unassigned) [Example 67h], 16 µM. For `O[C@H]1CC[C@H]1[C@H]1c2ccccc2-c2cncn21` [Example 01b, (1S,2S)-2-((S)-5H-imidazo[5,1-a]isoindol-5-yl)cyclobutan-1-ol] the value was 0.15 µM; for `O[C@H]1CCOC[C@@H]1[C@H]1c2ccccc2-c2cncn21` [Example 05d, (3S,4S)-3-((S)-5H-imidazo[5,1-a]isoindol-5-yl)-tetrahydro-2H-pyran-4-ol], 1 µM; for `Nc1cc2n(n1)CCC(C1c3ccccc3-c3cncn31)C2O` (single isomer, unassigned) [Example 161c], 1 µM. For `OC1C(C2c3ccccc3-c3cncn32)CCC12CCOCC2` (single isomer, unassigned) [Example 68h] the value was more than 25 µM; for `CS(=O)(=O)c1ccc2c(c1)OCC(C1c3ccccc3-c3cncn31)C2O` (single isomer, unassigned) [Example 91d], 0.36 µM. Consider `OC1c2nonc2CCC1C1c2ccccc2-c2cncn21` (single isomer, unassigned) [Example 163a], for which the EC50 was 0.1 µM. The same measure for `OC1c2cncn2CCC1C1c2ccccc2-c2cncn21` (single isomer, unassigned) [Example 07b]: more than 25 µM.

These data come from patent US12583858B2 (Genentech, Inc., priority 2015, dated 2026).
